Results as given in patent US4457936A, “Use of hydroxyphenyl-thiazole-, -thiazoline- and -thiazolidine-carboxylic acids, for influencing the collagen metabolism” (Hoechst Aktiengesellschaft, priority 1980, dated 1984).
Like-named read-outs stand apart in the source and are kept apart here.

Assays:
[1] = target: prolyl hydroxylase (Homo sapiens, UniProt P13674); assay: enzyme test, hydroxylation of insufficiently hydroxylated collagen by prolyl hydroxylase (cell-free); format: biochemical
From the text: (§1) The inhibiting effect of the substances in accordance with the invention on collagen biosynthesis can be examined in an enzyme test analogous to the method of B. Peterkofsky and R. DiBlasio [Anal. Biochem. 66, 279-286 (1975)]. In this test, insufficiently hydroxylated collagen is enzymatically hydroxylated in the presence of molecular oxygen, iron-II ions, alpha-ketoglutaric and ascorbic acid.
(§2) As enzymes, prolyl hydroxylase or lysyl hydroxylase can be used and applied in a cell-free medium. The effect of the substances of the invention can be measured furthermore in cell and tissue cultures.
(§3) The inhibiting effect (DI50) is that concentration at which the enzyme reaction is inhibited by 50%.

[2] = system: collagen biosynthesis; assay: inhibiting effect in cell culture; format: cell-based; settings: read-out: DI50 cell culture
From the text: as §2, §3

[3] = target: T1, lysyl hydroxylase (Homo sapiens, UniProt Q02809); assay: enzyme test, hydroxylation of insufficiently hydroxylated collagen by lysyl hydroxylase (cell-free); format: biochemical
T1 sequence (Q02809 19-727): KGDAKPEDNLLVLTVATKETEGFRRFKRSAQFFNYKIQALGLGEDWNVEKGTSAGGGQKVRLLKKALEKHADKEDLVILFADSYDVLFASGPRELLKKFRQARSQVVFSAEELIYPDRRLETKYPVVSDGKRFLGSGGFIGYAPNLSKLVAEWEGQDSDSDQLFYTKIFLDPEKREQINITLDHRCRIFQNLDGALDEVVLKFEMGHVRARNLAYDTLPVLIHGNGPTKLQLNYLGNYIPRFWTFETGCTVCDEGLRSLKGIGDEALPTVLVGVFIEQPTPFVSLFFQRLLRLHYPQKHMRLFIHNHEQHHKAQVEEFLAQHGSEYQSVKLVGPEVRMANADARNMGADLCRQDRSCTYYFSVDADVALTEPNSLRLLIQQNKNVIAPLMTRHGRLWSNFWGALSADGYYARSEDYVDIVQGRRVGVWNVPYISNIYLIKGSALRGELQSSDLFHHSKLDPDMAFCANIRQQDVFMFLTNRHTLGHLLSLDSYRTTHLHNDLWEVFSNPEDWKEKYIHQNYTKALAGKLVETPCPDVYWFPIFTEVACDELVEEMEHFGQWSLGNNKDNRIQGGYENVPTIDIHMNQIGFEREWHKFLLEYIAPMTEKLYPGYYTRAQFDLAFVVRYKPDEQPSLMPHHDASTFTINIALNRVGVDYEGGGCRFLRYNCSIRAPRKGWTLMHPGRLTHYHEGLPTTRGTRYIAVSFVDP
From the text: as §1, §2, §3

[4] = concentration at which the enzyme reaction is inhibited by 50%, first part of Table, read-out: DI50 propyl-hydroxylase
[5] = concentration at which the enzyme reaction is inhibited by 50%, first part of Table, read-out: DI50 lysylhydroxylase
[6] = second part of Table, P, read-out: DI50 P.circle.
[7] = second part of Table, column L (circled), read-out: DI50 L.circle.

Sequence of prolyl hydroxylase (P13674 18-534): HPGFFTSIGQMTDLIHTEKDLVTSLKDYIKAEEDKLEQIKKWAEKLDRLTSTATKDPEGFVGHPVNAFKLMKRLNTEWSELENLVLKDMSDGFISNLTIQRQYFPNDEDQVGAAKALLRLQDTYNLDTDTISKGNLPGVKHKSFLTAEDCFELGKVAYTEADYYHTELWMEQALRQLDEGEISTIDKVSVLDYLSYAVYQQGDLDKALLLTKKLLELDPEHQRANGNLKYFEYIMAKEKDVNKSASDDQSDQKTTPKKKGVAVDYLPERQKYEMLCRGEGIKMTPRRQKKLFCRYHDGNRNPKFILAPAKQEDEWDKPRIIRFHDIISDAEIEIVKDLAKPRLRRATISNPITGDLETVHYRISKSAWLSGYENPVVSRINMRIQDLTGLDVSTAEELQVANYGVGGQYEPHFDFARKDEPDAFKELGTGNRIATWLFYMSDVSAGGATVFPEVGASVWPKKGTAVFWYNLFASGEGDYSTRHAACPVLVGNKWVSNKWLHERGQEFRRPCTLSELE
Sequence of prolyl hydroxylase (P07237 18-508 partner): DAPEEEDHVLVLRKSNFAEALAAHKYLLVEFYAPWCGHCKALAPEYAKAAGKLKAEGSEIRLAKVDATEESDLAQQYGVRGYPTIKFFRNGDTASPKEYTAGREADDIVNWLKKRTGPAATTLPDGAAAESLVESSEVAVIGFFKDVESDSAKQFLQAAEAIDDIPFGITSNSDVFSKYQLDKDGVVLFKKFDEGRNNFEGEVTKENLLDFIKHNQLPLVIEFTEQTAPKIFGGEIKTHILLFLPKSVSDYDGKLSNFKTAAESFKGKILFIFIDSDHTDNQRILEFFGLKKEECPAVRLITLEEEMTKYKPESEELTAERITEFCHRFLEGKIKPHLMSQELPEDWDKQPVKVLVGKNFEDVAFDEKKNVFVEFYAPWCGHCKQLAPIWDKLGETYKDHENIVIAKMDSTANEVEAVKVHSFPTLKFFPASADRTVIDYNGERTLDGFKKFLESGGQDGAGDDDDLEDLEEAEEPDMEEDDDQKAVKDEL

SMILES | IC50 [1, 4] | IC50 [2] | IC50 [3, 5] | IC50 [1, 6] | IC50 [3, 7]
O=C(O)C1CSC(c2cc(Cl)ccc2O)=N1 (centres unmarked) | 16 µM | 17 µM | 12 µM | – | –
Cc1ccc(O)c(-c2nc(C(=O)O)cs2)c1 | 42 µM | – | 67 µM | – | –
Cc1ccc(O)c(-c2nc(C(=O)O)c(-c3ccccc3)s2)c1 | – | – | – | 26 µM | 34 µM
O=C(O)c1csc(-c2cc(Cl)ccc2O)n1 | – | – | – | 71 µM | 188 µM
O=C(O)C1CSC(c2ccccc2O)=N1 (centres unmarked) | 20 µM | – | 28 µM | – | –
Cc1ccc(O)c(-c2nc(C(=O)O)c(C(=O)O)s2)c1 | – | – | – | 67 µM | 144 µM
O=C(O)[C@@H]1CSC(c2cc([N+](=O)[O-])ccc2O)N1 (some centres unmarked) | 50 to 100 µM | – | 50 to 100 µM | – | –
O=C(O)C1CSC(c2ccc(O)cc2O)=N1 (centres unmarked) | 26 µM | – | 16 µM | – | –
O=C(O)c1nc(-c2ccc(O)cc2O)sc1-c1ccccc1 | – | – | – | 27 µM | 21 µM
Cc1ccc(O)c(C2=NC(C(=O)O)CS2)c1 (centres unmarked) | 28 µM | 34 µM | 28 µM | – | –
O=C(O)[C@@H]1CSC(c2cc(Br)cc(Br)c2O)N1 (some centres unmarked) | 50 to 100 µM | – | 10 µM | – | –
O=C(O)[C@@H]1CSC(c2cc(Cl)cc(Cl)c2O)N1 (some centres unmarked) | 50 to 100 µM | – | 50 to 100 µM | – | –
O=C(O)[C@@H]1CSC(c2ccccc2O)N1 (some centres unmarked) | 28 µM | – | 28 µM | – | –
O=C(O)c1csc(-c2cc(Cl)c3ccccc3c2O)n1 | – | – | – | 28.2 µM | 31.6 µM
Nc1ccc(O)c(-c2nc(C(=O)O)cs2)c1 | – | – | – | 5.6 µM | 29 µM
